# In patent US7078165B2, “Method for modulating Nod1 activity, use of a MTP related molecule for modulating Nod1 activity, and therapeutic applications thereof” (Institut Pasteur, priority 2003, dated 2006):
# Experiments:
# Nod1 [1] = target: T1, Nod1 (Homo sapiens, UniProt Q9Y239); test: Nod1-dependent NF-κB luciferase activation in Nod1-overexpressing HEK293 cells; format: cell-based; design: expressed in transfected cells; host or cells: HEK293; settings: for stimulation of the Nod1 pathway by HPLC fractions of N. meningitidis PGN muropeptides: 1% of the volume of each HPLC fraction (FIG. 2b); for stimulation of the Nod1 pathway (NF-κB activation): LPS, lipid A, lipoproteins preparations at 10 μg/ml (FIG. 1a, 1b); for detection by Nod1: FIG. 8B-8D, additional experiments; for Nod1-dependent activation of NF-κB by muropeptides: 10 ng (FIG. 2d)
# T1 sequence (Q9Y239 1-953): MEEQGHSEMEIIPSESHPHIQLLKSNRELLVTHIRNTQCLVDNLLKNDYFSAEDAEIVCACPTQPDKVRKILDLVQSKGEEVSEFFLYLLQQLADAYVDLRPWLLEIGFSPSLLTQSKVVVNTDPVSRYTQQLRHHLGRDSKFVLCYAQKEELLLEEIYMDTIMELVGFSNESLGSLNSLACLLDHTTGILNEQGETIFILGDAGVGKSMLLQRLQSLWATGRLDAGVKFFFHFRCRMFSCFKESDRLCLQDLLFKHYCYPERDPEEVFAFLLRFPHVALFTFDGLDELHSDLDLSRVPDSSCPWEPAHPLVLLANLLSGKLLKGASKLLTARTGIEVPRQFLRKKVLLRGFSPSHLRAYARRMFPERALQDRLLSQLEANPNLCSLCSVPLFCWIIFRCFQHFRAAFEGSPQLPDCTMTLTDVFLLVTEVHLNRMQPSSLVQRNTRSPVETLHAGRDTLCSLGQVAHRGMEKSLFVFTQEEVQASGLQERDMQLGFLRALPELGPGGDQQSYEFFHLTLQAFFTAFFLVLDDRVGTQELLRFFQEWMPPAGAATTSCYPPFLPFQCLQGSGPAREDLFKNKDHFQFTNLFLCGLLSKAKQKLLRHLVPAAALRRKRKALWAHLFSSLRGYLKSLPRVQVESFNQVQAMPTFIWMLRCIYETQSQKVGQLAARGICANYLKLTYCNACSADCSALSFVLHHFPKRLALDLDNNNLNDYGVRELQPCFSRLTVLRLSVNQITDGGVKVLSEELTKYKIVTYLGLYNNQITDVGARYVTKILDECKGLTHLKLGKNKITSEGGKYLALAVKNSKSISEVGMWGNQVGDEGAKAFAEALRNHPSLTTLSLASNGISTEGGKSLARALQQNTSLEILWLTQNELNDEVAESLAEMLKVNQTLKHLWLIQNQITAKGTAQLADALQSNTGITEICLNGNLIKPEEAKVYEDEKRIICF
# Protocol: (§1) Studies examining the activation of NF-κB by LPS, lipid A, lipoproteins or the purified PGNs in cells over-expressing Nod1 were carried out as described by Inohara et al. (9). Briefly, HEK293 cells were transfected overnight with 10 ng of Nod 1. At the same time, the LPS, lipoproteins or peptidoglycan preparations were added and the NF-κB-dependent luciferase activation was then measured following 24 h of co-incubation.
# (§2) NF-κB-dependent luciferase assays were performed in duplicate and data represent at least 3 independent experiments.
# macrophages = test: Activation of macrophages; format: cell-based
# Nod2 [2] = target: T2, Nod2 (Homo sapiens, UniProt Q9HC29); test: Nod2-dependent activation of NF-κB; format: cell-based; settings: 10 ng (FIG. 2d)
# T2 construct: expressed in transfected cells
# Protocol: as §1, §2
# (§3) In FIG. 2a, PGN muropeptides from N. meningitides were separated by reverse-phase HPLC and subsequently analysed by mass spectroscopy (see supporting on-line text). […] In FIG. 2d, equivalent amounts (10 ng) of GM-dipeptide (GM-di; synthetic source), GM-tripeptide (GMtri), or GM-tetrapeptide (GM-tetra) were tested for stimulation of Nod 1-, Nod2- or TLR2-dependent activation of NF-κB. […] Buff, buffer diluent of the muropeptides.
# Nod1 [3] = target: T1, Nod1; test: Nod1-dependent IL-8 production in HeLa epithelial cells (ELISA); format: cell-based; design: expressed in transfected cells; settings: HeLa cells transfected with 10 ng Nod1; 18 h; IL-1 at 10 ng/ml (FIG. 2f)
# Protocol: To measure Nod1-dependent IL-8 produced in epithelial cells by muropeptides, 5×10^5HeLa cells were seeded into each well of a twelve well plate and transfected the following day with 10 ng Nod1 plus the individual muropeptides (as described above) or treated with IL-1 as a positive control. Eighteen hours later, supernatants were collected and assayed for IL-8 as previously described (10) using an ELISA kit (R and D Systems).
# as §3
# Nod2 [4] = target: T2, Nod2; settings: cited from earlier work
# [5] = test system: NF-κB p65 in intestinal epithelial cells from Nod1-deficient mice; test: NF-κB p65 nuclear translocation in intestinal epithelial cells from Nod1-deficient mice; format: cell-based; settings: microinjection of supernatants; TNFα 10 ng/ml
# T2 sequence (Q9HC29 whole entry): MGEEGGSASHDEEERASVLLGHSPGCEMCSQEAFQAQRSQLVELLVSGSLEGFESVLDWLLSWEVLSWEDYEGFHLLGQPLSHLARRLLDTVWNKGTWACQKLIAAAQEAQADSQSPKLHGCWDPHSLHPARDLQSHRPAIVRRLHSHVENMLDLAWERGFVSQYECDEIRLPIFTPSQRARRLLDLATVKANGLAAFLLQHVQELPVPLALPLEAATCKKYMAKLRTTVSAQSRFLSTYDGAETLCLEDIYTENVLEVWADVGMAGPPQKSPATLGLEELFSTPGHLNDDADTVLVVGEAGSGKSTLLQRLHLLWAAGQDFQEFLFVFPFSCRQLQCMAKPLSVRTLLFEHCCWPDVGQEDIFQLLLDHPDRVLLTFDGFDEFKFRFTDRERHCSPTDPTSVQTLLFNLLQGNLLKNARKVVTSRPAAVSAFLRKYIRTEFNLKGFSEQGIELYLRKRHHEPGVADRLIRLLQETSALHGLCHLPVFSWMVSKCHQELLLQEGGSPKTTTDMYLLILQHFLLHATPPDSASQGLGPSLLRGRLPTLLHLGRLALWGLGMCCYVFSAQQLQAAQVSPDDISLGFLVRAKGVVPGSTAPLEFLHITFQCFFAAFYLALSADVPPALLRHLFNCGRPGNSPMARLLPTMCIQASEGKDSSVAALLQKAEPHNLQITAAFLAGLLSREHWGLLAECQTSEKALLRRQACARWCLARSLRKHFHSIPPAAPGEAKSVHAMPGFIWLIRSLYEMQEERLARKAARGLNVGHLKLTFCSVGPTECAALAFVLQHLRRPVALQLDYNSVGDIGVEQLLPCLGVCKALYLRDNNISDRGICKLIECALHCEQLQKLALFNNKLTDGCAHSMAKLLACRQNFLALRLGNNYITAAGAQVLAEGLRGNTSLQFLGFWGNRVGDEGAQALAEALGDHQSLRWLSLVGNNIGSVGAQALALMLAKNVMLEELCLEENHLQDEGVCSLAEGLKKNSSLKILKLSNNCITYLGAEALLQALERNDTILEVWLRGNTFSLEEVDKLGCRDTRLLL
compound,measurement,setting,value
GlcNAc-anhydro-MurNAc-L-Ala-D-GlumesoDAP [anhydrous GM-tripeptide],stimulation of the Nod1 pathway by HPLC fractions of N. meningitidis PGN muropeptides,Nod1 [1],activates Nod1
lipid A [reference compound],activation of macrophages,macrophages,could efficiently activate macrophages
same,stimulation of the Nod1 pathway (NF-κB activation),Nod1 [1],could not stimulate the Nod1 pathway
CC(=O)N[C@H]1[C@H](O[C@H]2[C@H](O[C@H](C)C(=O)N[C@@H](C)C(=O)N[C@H](CCC(=O)O)C(N)=O)[C@@H](NC(C)=O)C(O)O[C@@H]2CO)O[C@H](CO)[C@@H](O)[C@@H]1O (stereo partly drawn) [GM-dipeptide],Nod2-dependent activation of NF-κB by muropeptides,Nod2 [2],detects
"C[C@H](N)C(=O)N[C@H](CCC(=O)NC(CCCC(N)C(=O)O)C(=O)O)C(=O)O (stereo partly drawn) [tripeptide L-Ala-D-Glu-mesoDAP, L-Ala-D-Glu-mesoDAP]",detection by Nod1,Nod1 [1],able to sense
same,detection by Nod1,Nod1 [1]; listed as TriDAP,detects
CC(=O)N[C@H]1[C@@H](OP(=O)(O)OP(=O)(O)OC[C@H]2O[C@@H](n3ccc(=O)[nH]c3=O)[C@H](O)[C@@H]2O)O[C@H](CO)[C@@H](O)[C@@H]1O[C@H](C)C(=O)N[C@@H](C)C(=O)N[C@H](CCC(=O)N[C@@H](CCC[C@@H](N)C(=O)O)C(=O)O)C(=O)O [UDP-MurTriDAP],detection by Nod1,Nod1 [1],detects
"GlcNAc-MurNAc-L-Ala-D-Glu-mesoDAP(GlcNAc-MurNAc-L-Ala-D-Glu-mesoDAP-D-Ala)-D-Ala [dimeric GM-tetrapeptide, reference compound]",stimulation of the Nod1 pathway by HPLC fractions of N. meningitidis PGN muropeptides,Nod1 [1],does not activate Nod1
GlcNAc-MurNAc-L-Ala-D-Glu-mesoDAP-DAla [GM-tetrapeptide],Nod1-dependent activation of NF-κB by muropeptides,Nod1 [1],not sensed
"Pam3Cys-Ser-Lys4-OH [synthetic lipopeptide, reference compound]",stimulation of the Nod1 pathway (NF-κB activation),Nod1 [1],not possible to stimulate the Nod1 pathway
CC(=O)NC1C(O)OC(CO)C(O)C1OC(C)C(=O)NC(C)C(=O)NC(CCC(=O)NC(CCCC(N)C(=O)O)C(=O)O)C(=O)O (stereo not drawn) [MurTriDAP],detection by Nod1,Nod1 [1],detects
GlcNAc-MurNAc-L-Ala-D-Glu-mesoDAP [GM-tripeptide],Nod1-dependent activation of NF-κB by muropeptides,Nod1 [1],specifically detects
same,stimulation of the Nod1 pathway by HPLC fractions of N. meningitidis PGN muropeptides,Nod1 [1],activates Nod1
same,detection by Nod1,Nod1 [1],detects
same,production of IL-8,Nod1 [3],"production of the pro-inflammatory chemokine, IL-8"
"CC(=O)N[C@H]1C(O)O[C@H](CO)[C@@H](O)[C@@H]1O[C@H](C)C(=O)N[C@@H](C)C(=O)N[C@H](CCC(=O)O)C(N)=O (mixture of isomers) [M-dipeptide, muramyl dipeptide]",recognition by Nod2 (previous findings),Nod2 [4],recognizes
TNFα,NF-κB nuclear translocation in Nod1-deficient cells,[5],can efficiently stimulate NF-κB nuclear translocation
Lpp: the most abundant lipoprotein in E. coli (lipidated),stimulation of the Nod1 pathway (NF-κB activation),Nod1 [1],not possible to stimulate the Nod1 pathway
